Reference: patent US20240122180A1, “FUNGICIDAL HALOMETHYL KETONES AND HYDRATES AND THEIR MIXTURES” (FMC Corporation, priority 2020, published 2024)
Marks after values point to notes of the source that are not given here.

Tests used:
Format in all cases: in vivo
Conditions in all cases: 100 = 100% disease control
[1] = test system: Phakopsora pachyrhizi (the causal agent of Asian soybean rust); test: Test A: preventive spray on soybean seedlings, visual disease rating (100 = 100% control; * 50 ppm, ** 10 ppm, *** 250 ppm)
In short: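 Soybean seedlings sprayed to run-off with compound suspended in acetone/water with 250 ppm PEG400 surfactant, inoculated next day with P. pachyrhizi spores. Kept 24 h saturated at 22 °C, then 8 days at 22 °C before visual rating of disease control (0-100) relative to controls.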

[2] = test system: Uncinula necator (the causal agent of grape powdery mildew); test: Test C: preventive spray on grape seedlings, disease rating (100 = 100% control; * 50 ppm, ** 10 ppm, *** 250 ppm)
In short: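 Grape seedlings sprayed to run-off with compound suspended in acetone/water (50/50) with 250 ppm PEG400, then inoculated next day with Uncinula necator spores. Kept at 20 °C for 12 days before disease rating, where 100 is full control and 0 none, relative to untreated controls.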

[3] = test system: Zymoseptoria tritici (the causal agent of wheat leaf blotch); test: Test D: preventive spray on wheat seedlings, disease rating (100 = 100% control; * 50 ppm, ** 10 ppm, *** 250 ppm)
In short: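 Compounds first dissolved in acetone (3% of final volume), then suspended in 50/50 acetone/water with 250 ppm PEG400 and sprayed to run-off on wheat seedlings; Z. tritici spores inoculated next day. Incubated saturated at 24° C. 48 h, then 20° C. 17 days; disease control rated 0–100 versus controls.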

[4] = test system: Blumeria graminis f. sp. tritici (the causal agent of wheat powdery mildew); test: Test E: preventive spray on wheat seedlings, visual disease rating (100 = 100% control; * 50 ppm, ** 10 ppm, *** 250 ppm)
In short: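 Test suspension (3% acetone, acetone/water 50/50, 250 ppm PEG400) sprayed to run-off on wheat seedlings; inoculated next day with powdery mildew spore dust and kept 8 days at 20 °C. Visual rating, 100 = full and 0 = no control relative to untreated.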

[5] = test system: Puccinia recondita f. sp. tritici (the causal agent of wheat leaf rust); test: Test B: preventive spray on wheat seedlings, disease rating (100 = 100% control; * 50 ppm, ** 10 ppm, *** 250 ppm)
In short: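 Wheat seedlings sprayed to run-off with compound in acetone/water (50/50) containing 250 ppm PEG400, inoculated next day with Puccinia recondita f. sp. tritici spores. Held 24 h saturated at 20° C, then 6 days at 20° C; disease control rated 0–100 relative to controls.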

[6] = 10 ppm test suspension, 0 = no control
[7] = 250 ppm test suspension, 0 = no control
[8] = 10 ppm test suspension, soybean seedlings
[9] = 250 ppm test suspension, grape seedlings
[10] = 250 ppm test suspension, wheat seedlings
[11] = 10 ppm test suspension, wheat seedlings
[12] = 50 ppm test suspension, grape seedlings
[13] = 50 ppm test suspension, soybean seedlings
[14] = 50 ppm test suspension, wheat seedlings
[15] = 50 ppm test suspension, 0 = no control

Row | Compound | Test C disease control rating [2, 7] | Test D disease control rating [3, 7] | Test E disease control rating [4, 7] | Test A disease control rating [1, 8] [%] | Test C disease control rating [2, 9] | Test D disease control rating [3, 10] | Test E disease control rating [4, 10] | Test B disease control rating [5, 11] [%] | other results
1 | CCO/C(=C\Oc1ccc(Cc2ncc(C(=O)NCC3CC3)o2)cc1)C(F)(F)F [compound 258] | 64*** % | 13*** % | 53*** % | – | – | – | – | – | Test A disease control rating [1, 6]: 96%; Test B disease control rating [5, 6]: 0%
2 | C=CCOC(=O)c1cnn(Cc2ccc(O/C=C(\OCC)C(F)(F)F)cc2)c1 [compound 246] | – | – | – | 100 | 85*** % | 12*** % | 90*** % | 0 | –
3 | CCO/C(=C\Oc1ccc(Cn2cc(C(=O)OCC(C)C)cn2)cc1)C(F)(F)F [compound 219] | – | – | – | 100 | 92*** % | 0*** % | 83*** % | 0 | –
4 | CCO/C(=C\Oc1ccc(Cn2cc(C(=O)NCC(=O)OC)cn2)cc1)C(F)(F)F [compound 427] | 5*** % | 53*** % | 29*** % | – | – | – | – | – | Test A disease control rating [1, 6]: 13%; Test B disease control rating [5, 6]: 0%
5 | CC#CCOC(=O)c1cnn(Cc2ccc(O/C=C(\OCC)C(F)(F)F)cc2)c1 [compound 243] | – | – | – | 100 | 29*** % | 0*** % | 56*** % | 0 | –
6 | C#CCOC(=O)c1cnn(Cc2ccc(O/C=C(\OCC)C(F)(F)F)cc2)c1 [compound 185] | – | – | – | 100 | – | 0*** % | 95*** % | 0 | Test C disease control rating [2, 12]: 100* %
7 | CC(=O)c1ccc(OCC(O)(O)C(F)(F)F)cc1 [compound 80] | – | – | – | – | – | 96*** % | 99*** % | – | Test A disease control rating [1, 13]: 99%; Test C disease control rating [2, 12]: 0%; Test B disease control rating [5, 14]: 100%
8 | CCO/C(=C\Oc1ccc(Cn2cc(C(=O)OCC3CC3)cn2)cc1)C(F)(F)F [compound 220] | – | – | – | 100 | 85*** % | 28*** % | 92*** % | 0 | –
9 | O=C(NCC1CC1)c1cnc(Cc2ccc(OCC(O)(O)C(F)(F)F)cc2)s1 [compound 256] | – | – | – | 73 | 15*** % | 95*** % | 82*** % | 0 | –
10 | O=C(NCC1CC1)c1cnc(Cc2ccc(OCC(O)(O)C(F)(F)F)cc2)o1 [compound 247] | – | – | – | 13 | 21*** % | 79*** % | 21*** % | 0 | –
11 | CCOC(=O)c1cnn(Cc2ccc(SCC3(C(F)(F)F)OCCO3)cc2)c1 [compound 115] | – | – | – | – | 58% | 19% | 56% | – | Test A disease control rating ([1]; 250 ppm test suspension, soybean seedlings): 0%; Test B disease control rating [5, 10]: 0%
12 | O=C(NCC(F)(F)F)c1cnc(Cc2ccc(OCC3(C(F)(F)F)OCCO3)cc2)o1 [compound 257] | 81*** % | 35*** % | 92*** % | – | – | – | – | – | Test A disease control rating [1, 6]: 54%; Test B disease control rating [5, 6]: 0%
13 | CCOC(=O)c1cnn(Cc2ccc(O/C=C(\OCC)C(F)(F)F)c(C)c2)c1 [compound 410] | 88*** % | 11*** % | 13*** % | – | – | – | – | – | Test A disease control rating [1, 6]: 100%; Test B disease control rating [5, 6]: 0%
14 | CCO/C(=C\Oc1ccc(Cn2cc(C(=O)OC)cn2)cc1)C(F)(F)F [compound 138] | – | – | – | 100 | – | 31*** % | 99*** % | 0 | Test C disease control rating [2, 12]: 100* %
15 | CCOC(=O)c1cnn(Cc2ccc(O/C=C(\OCC)C(F)(F)F)c(F)c2F)c1 [compound 430] | 82*** % | 3*** % | 99*** % | – | – | – | – | – | Test A disease control rating [1, 15]: 100%; Test B disease control rating [5, 15]: 0%
16 | CCOC(=O)c1cnnn1Cc1ccc(O/C=C(\OCC)C(F)(F)F)cc1 [compound 120] | – | – | – | – | – | – | – | – | Test A disease control rating [1, 13]: 100%; Test C disease control rating [2, 12]: 23%; Test D disease control rating [3, 14]: 17%; Test E disease control rating [4, 14]: 98%; Test B disease control rating [5, 14]: 0%
17 | CCOC(=O)c1cnn(Cc2ccc(O/C=C(\OCC)C(F)(F)F)c(C#N)c2)c1 [compound 416] | 34*** % | 0*** % | 0*** % | – | – | – | – | – | Test A disease control rating [1, 15]: 81%; Test B disease control rating [5, 15]: 0%
18 | CCS(=O)(=O)N1CC(c2ccc(OCC3(C(F)(F)F)OCCO3)cc2)C1 [compound 382] | 22*** % | 4*** % | 56*** % | – | – | – | – | – | Test A disease control rating [1, 15]: 0%; Test B disease control rating [5, 15]: 0%
19 | CCOC(=O)c1cnn(Cc2ccc(OCC(O)(O)C(F)(F)F)cc2F)c1 [Compound 376] | – | 98*** % | 99*** % | – | – | – | – | – | Test A disease control rating [1, 15]: 100%; Test C disease control rating [2, 15]: 36%; Test B disease control rating [5, 15]: 92%
20 | CCOC(=COc1ccc(OC(=O)c2ccccc2F)cc1)C(F)(F)F [compound 379] | 93*** % | 0*** % | 21*** % | – | – | – | – | – | Test A disease control rating [1, 15]: 0%; Test B disease control rating [5, 15]: 0%
21 | CCO/C(=C\Oc1ccc(Cc2ncc(C(=O)NCC3CC3)s2)cc1)C(F)(F)F [compound 254] | – | – | – | 73 | 10*** % | 67*** % | 56*** % | 0 | –
